Data on one compound can be found in US12226480B2, “Combination drug including TLR7 agonist” (SUMITOMO PHARMA CO., LTD., priority 2017, dated 2025).

Test [1] has as its system murine colon cancer cell line CT26. In words: Antitumor activity of combination use of anti-PD-1 antibody and TLR7 agonist (tumor volume). It is filed as in vivo. The following applies: CT26 in Balb/c mice, until 23rd day; Compound 1 5 mg/kg iv once a week, anti-PD-1 antibody 200 μg ip twice a week; versus vehicle administration group. As for the experimental part:
1×10^6 Cells of murine colon cancer cell line CT26 (ATCC) were transplanted to the ventral flank of 48 female 6-week-old Balb/c mice. Five days later, the mice were divided into four groups. In vehicle administration group, saline was intravenously administered once a week, and 200 μg of Rat IgG2a isotype control antibody (Bioxcell) was intraperitoneally administered twice a week. In TLR7 agonist administration group, a TLR7 agonist, N-{4-[(2-amino-4-{[(3S)-1-hydroxyhexan-3-yl]amino}-6-methylpyrimidin-5-yl)methyl]-3-methoxybenzyl}-N-(2,2,2-trifluoroethyl)glycine (hereinafter, referred to as “Compound 1”) was administered into a vein in a dose of 5 mg/kg once a week, and 200 μg of Rat IgG2a isotype control antibody (Bioxcell) was intraperitoneally administered twice a week. In anti-PD-1 antibody administration group, 200 μg of anti-PD-1 antibody (Bioxcell) was intraperitoneally administered twice a week. In combination group of Compound 1 and anti-PD-1 antibody, Compound 1 was intravenously administered in a dose of 5 mg/kg once a week, and 200 μg of anti-PD-1 antibody (Bioxcell) was intraperitoneally administered twice a week. After the transplantation of the tumor cell, the tumor volume was measured twice a week, and the body weight was checked once a week until the 23rd day. […]

The subject of test [2] is effector memory T cell. Nature of the test: Ratio of effector memory T cell in CD8-positive tumor-infiltrating lymphocytes by FACS (anti-PD-1 study). The format is in vivo, Balb/c mice. The following applies: tumor on 23rd day, CD8+ CD62L- CD127+, compared with the vehicle administration group, Compound 1 5 mg/kg iv, anti-PD-1 antibody 200 μg ip. Here is the method: (§1) 1×10^6 Cells of murine colon cancer cell line CT26 (ATCC) were transplanted to the ventral flank of 48 female 6-week-old Balb/c mice. Five days later, the mice were divided into four groups. In vehicle administration group, saline was intravenously administered once a week, and 200 μg of Rat IgG2a isotype control antibody (Bioxcell) was intraperitoneally administered twice a week. In Compound 1 administration group, Compound 1 was intravenously administered in a dose of 5 mg/kg once a week, and 200 μg of Rat IgG2a isotype control antibody (Bioxcell) was intraperitoneally administered twice a week. In anti-PD-1 antibody administration group, 200 μg of anti-PD-1 antibody (Bioxcell) was intraperitoneally administered twice a week. In combination group of Compound 1 and anti-PD-1 antibody, Compound 1 was intravenously administered in a dose of 5 mg/kg once a week, and 200 μg of anti-PD-1 antibody (Bioxcell) was intraperitoneally administered twice a week. After the transplantation of the tumor cell, the tumor was picked out on the 23rd day, and a cell suspension of the tumor was prepared by using a tumor dissociation kit (Miltenyi) and a gentle macs dissociates (Miltenyi). […] The obtained cell suspension was stained with fluoresceinated anti-CD8, anti-CD62L, and anti-CD127 antibodies, and analyzed by flow cytometry (FACS) method. […]
For orientation: A flow cytometer gives signals particle by particle.

For test [3], the system named is murine colon cancer cell line CT26. In words: Antitumor activity of combination use of anti-CTLA-4 antibody and TLR7 agonist (tumor volume). The format is in vivo. The following applies: CT26 in Balb/c mice, until 23rd day; Compound 1 5 mg/kg iv once a week, anti-CTLA-4 antibody 200 μg ip twice a week; versus vehicle administration group. As for the experimental part: 1×10^6 Cells of murine colon cancer cell line CT26 (ATCC) were transplanted to the ventral flank of 40 female 7-week-old Balb/c mice. Seven days later, the mice were divided into four groups. In vehicle administration group, saline was intravenously administered once a week, and 200 μg of Rat IgG2a isotype control antibody (Bioxcell) was intraperitoneally administered twice a week. In TLR7 agonist administration group, Compound 1 was intravenously administered in a dose of 5 mg/kg once a week, and 200 μg of Rat IgG2a isotype control antibody (Bioxcell) was intraperitoneally administered twice a week. In anti-CTLA-antibody administration group, 200 μg of anti-CTLA-4 antibody (Bioxcell) was intraperitoneally administered twice a week. In combination group of Compound 1 and anti-CTLA-4 antibody, Compound 1 was intravenously administered in a dose of 5 mg/kg once a week, and 200 μg of anti-CTLA-4 antibody (Bioxcell) was intraperitoneally administered twice a week. After the transplantation of the tumor cell, the tumor volume was measured twice a week, and the body weight was checked once a week until the 23rd day. The tumor volume was obtained by measuring long axis and short axis of the tumor and calculating by a math formula of (short axis)×(short axis)×(long axis)×0.5.
The ordinate denotes tumor volume, and the abscissa denotes elapsed days from the transplantation of the tumor cell.

In another test the test system is MHC class I (H-2Kd). In words: MHC class I (H-2Kd) on tumor by flow cytometry (anti-PD-1 study). It is filed as in vivo, Balb/c mice. The following applies: tumor on 23rd day, CD45-negative H-2Kd-positive fraction; Compound 1 5 mg/kg iv, anti-PD-1 antibody 200 μg ip. As for the experimental part: 1×10^6 Cells of murine colon cancer cell line CT26 (ATCC) were transplanted to the ventral flank of 48 female 6-week-old Balb/c mice. Five days later, the mice were divided into four groups. In vehicle administration group, saline was intravenously administered once a week, and 200 μg of Rat IgG2a isotype control antibody (Bioxcell) was intraperitoneally administered twice a week. In Compound 1 administration group, Compound 1 was intravenously administered in a dose of 5 mg/kg once a week, and 200 μg of Rat IgG2a isotype control antibody (Bioxcell) was intraperitoneally administered twice a week. In anti-PD-1 antibody administration group, 200 μg of anti-PD-1 antibody (Bioxcell) was intraperitoneally administered twice a week. In combination group of Compound 1 and anti-PD-1 antibody, Compound 1 was intravenously administered in a dose of 5 mg/kg once a week, and 200 μg of anti-PD-1 antibody (Bioxcell) was intraperitoneally administered twice a week. After the transplantation of the tumor cell, the tumor was picked out on the 23rd day, and a cell suspension of the tumor was prepared by using a tumor dissociation kit (Miltenyi) and a gentle macs dissociater (Miltenyi). The cell suspension was stained with fluoresceinated anti-CD45 antibody and anti-H-2Kd antibody, and H-2Kd on the cancer cell was detected as CD45-negative and H-2Kd-positive fractions by flow cytometry method.

For test [4], the system named is effector memory T cell. In words: Ratio of effector memory T cell in CD8-positive tumor-infiltrating lymphocytes by FACS (anti-CTLA-4 study). The format is in vivo, Balb/c mice. The following applies: tumor on 26th day, CD8+ CD62L- CD127+, compared with the vehicle administration group, Compound 1 5 mg/kg iv, anti-CTLA-4 antibody 200 μg ip. Here is the method: as §1, with “40” for “48”, “Seven” for “Five”, “anti-CTLA-4” for “anti-PD-1”, “26th” for “23rd”, “dissociater” for “dissociates”

Take `CCC[C@@H](CCO)Nc1nc(N)nc(C)c1Cc1ccc(CN(CC(=O)O)CC(F)(F)F)cc1OC` [Compound 1, N-{4-[(2-amino-4-{[(3S)-1-hydroxyhexan-3-yl]amino}-6-methylpyrimidin-5-yl)methyl]-3-methoxybenzyl}-N-(2,2,2-trifluoroethyl)glycine]: the “tumor-volume variation / tumor growth inhibition” value in test [1] is “tumor growth inhibition was observed”; in test [3] it was “not so different from that of the vehicle administration group”. Further, the “ratio of effector memory T cell in CD8-positive cell” value with effector memory T cell [2] and with effector memory T cell [4] was “did not increase” throughout. In the test with MHC class I (H-2Kd), the “mean fluorescent intensity (MFI) of H-2Kd” value was “not so different from that of the vehicle administration group”.
